US12338228B2, “NLRP3 modulators” (Innate Tumor Immunity, Inc., priority 2019, dated 2025)

Target: T1, NLRP3 (Homo sapiens, UniProt Q96P20)
T1 construct: host or cells: PMA-differentiated THP-1 cells
Test: Measurement of IL-1β production in PMA-differentiated THP-1 cells (NLRP3 hIL1β)
Format: cell-based
Experimental: Serial dilutions of compounds in DMSO were added to low volume 384 well plates at 100 nl/well using an ECHO 550 acoustic dispenser (Labcyte) to achieve final starting concentration of 10 μM in assay.
THP-1 cells in RPMI (Gibco, 11875) media with 10% FBS at a density of 1×10^6 cell/ml in a T175 flask were treated with a final concentration of phorbol 12-myristate 13-acetate (PMA) (Sigma,P1585) of 50 ng/ml overnight at 37° C. at 5% CO2 for differentiation. Cells were harvested the next day after rinsing well with dPBS using 0.5% trypsin. A cell solution was prepared of 1×10^6 cells/ml for 50,000 cells in 50 μl/well in RPMI media with 2% FBS. Cells were plated using a multichannel pipette onto the compound dilutions in Greiner, 384 well, black clear bottom tissue culture treated plates (781090). The plates were incubated in 37° C. incubator at 5% CO2 for 2 hours.
After the 2 hour incubation, the cell plates were spun in the centrifuge for 5 minutes at 1200 rpm. Using the Felix (CyBio), 8 μl of the supernatant was transferred to 384 well, low volume, white proxy plates. (Perkin Elmer, 6008230). A human IL1beta hTRF kit was used to analyze the supernatant (CISBIO, 62HIL1BPEG). The kit instructions were followed for preparing the IL1Beta standard curve and then the antibodies from the kit were diluted 1:40 rather than 1:20 as kit instructed. Once combined, the antibodies were added across the plates, 5 μl/well. The plates were sealed and incubated at 4° C. overnight. The plates were then read on the Perkin Elmer EnVision at 665/615 nm using the hTRF laser.

T1 sequence (Q96P20 whole entry): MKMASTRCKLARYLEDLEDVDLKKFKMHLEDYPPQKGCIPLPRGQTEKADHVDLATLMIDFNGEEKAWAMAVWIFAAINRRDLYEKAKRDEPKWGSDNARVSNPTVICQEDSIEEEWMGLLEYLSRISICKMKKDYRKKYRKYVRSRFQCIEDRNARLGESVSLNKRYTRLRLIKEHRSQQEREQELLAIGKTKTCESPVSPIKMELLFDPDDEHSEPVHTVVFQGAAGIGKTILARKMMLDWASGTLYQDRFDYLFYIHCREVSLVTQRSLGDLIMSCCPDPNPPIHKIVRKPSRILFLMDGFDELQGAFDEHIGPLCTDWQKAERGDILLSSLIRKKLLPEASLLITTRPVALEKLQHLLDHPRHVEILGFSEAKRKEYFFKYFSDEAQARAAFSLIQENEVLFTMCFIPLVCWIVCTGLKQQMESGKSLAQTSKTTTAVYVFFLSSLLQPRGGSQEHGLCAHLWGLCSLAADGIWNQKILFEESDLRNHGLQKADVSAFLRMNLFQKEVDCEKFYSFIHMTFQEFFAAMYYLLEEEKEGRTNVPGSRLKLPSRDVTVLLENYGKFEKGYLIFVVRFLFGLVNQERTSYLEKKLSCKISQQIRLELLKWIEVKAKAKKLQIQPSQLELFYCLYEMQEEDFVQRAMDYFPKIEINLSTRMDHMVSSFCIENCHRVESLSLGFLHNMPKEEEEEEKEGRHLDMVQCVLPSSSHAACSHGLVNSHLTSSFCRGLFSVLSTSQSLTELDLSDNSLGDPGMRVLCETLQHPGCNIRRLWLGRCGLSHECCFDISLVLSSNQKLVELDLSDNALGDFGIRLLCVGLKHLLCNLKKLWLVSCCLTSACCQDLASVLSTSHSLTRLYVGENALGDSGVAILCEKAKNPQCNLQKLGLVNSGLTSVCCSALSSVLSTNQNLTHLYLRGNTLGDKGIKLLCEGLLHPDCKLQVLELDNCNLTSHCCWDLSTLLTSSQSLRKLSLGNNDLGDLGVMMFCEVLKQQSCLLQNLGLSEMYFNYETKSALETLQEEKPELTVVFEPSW

Row | EC50 [nM] | Compound
1 | 710 | Nc1cc(NCc2ccn[nH]2)c2ccc(-c3ccn[nH]3)c(F)c2n1 [Example 11, N4-((1H-Pyrazol-5-yl)methyl)-8-fluoro-7-(1H-pyrazol-5-yl)quinoline-2,4-diamine]
2 | 2900 | Cc1c(N)nc2cc(-c3ccn[nH]3)ccc2c1NCCCO [Example 12, 3-((2-Amino-3-methyl-7-(1H-pyrazol-5-yl)quinolin-4-yl)amino)propan-1-ol]
3 | 450 | Cc1c(N)nc2cc(-c3ccn[nH]3)ccc2c1NCc1ccn[nH]1 [Example 13, N4-((1H-Pyrazol-5-yl)methyl)-3-methyl-7-(1H-pyrazol-5-yl)quinoline-2,4-diamine]
4 | 260 | Nc1nc2cc(-c3ccn[nH]3)ccc2c(NCCO)c1C1CCCC1 [Example 14, 2-((2-Amino-3-cyclopentyl-7-(1H-pyrazol-5-yl)quinolin-4-yl)amino)ethan-1-ol]
5 | 440 | Nc1nc2cc(-c3ccn[nH]3)ccc2c(NCc2ccccn2)c1C1CCCC1 [Example 15, 3-Cyclopentyl-7-(1H-pyrazol-5-yl)-N4-(pyridin-2-ylmethyl)quinoline-2,4-diamine]

More lines, now with the values behind:

Row | Compound | EC50 [nM]
6 | 3-((2-Amino-3-cyclopentyl-7-(1H-pyrazol-5-yl)quinolin-4-yl)amino)propan-1-ol [Example 16] | 260
7 | Nc1nc2cc(-c3cc[nH]n3)ccc2c(NCCCO)c1F [Example 1, 3-((2-Amino-3-fluoro-7-(1H-pyrazol-3-yl)quinolin-4-yl)amino)propan-1-ol] | 160
8 | Nc1nc2cc(-c3cc[nH]n3)ccc2c(N[C@H]2CC[C@H](O)C2)c1F [Example 2, (1 S,3 S)-3-((2-Amino-3-fluoro-7-(1H-pyrazol-3-yl)quinolin-4-yl)amino)cyclopentan-1-ol] | 600
9 | Nc1nc2cc(-c3cc[nH]n3)ccc2c(NCCCO)c1Cl [Example 3, 3-((2-Amino-3-chloro-7-(1H-pyrazol-3-yl)quinolin-4-yl)amino)propan-1-ol] | 350
10 | Nc1cc(NCCCO)c2ccc(-c3cc[nH]n3)c(F)c2n1 [Example 4, 3-((2-Amino-8-fluoro-7-(1H-pyrazol-3-yl)quinolin-4-yl)amino)propan-1-ol] | 330
11 | Cc1cc(-c2cc[nH]n2)cc2nc(N)cc(N[C@H]3CC[C@H](O)C3)c12 [Example 5, (1S,3S)-3-((2-Amino-5-methyl-7-(1H-pyrazol-3-yl)quinolin-4-yl)amino)cyclopentan-1-ol] | 4000
12 | Cc1cc(-c2cc[nH]n2)cc2nc(N)cc(NCc3cc[nH]n3)c12 [Example 6, N4-((1H-Pyrazol-3-yl)methyl)-5-methyl-7-(1H-pyrazol-3-yl)quinoline-2,4-diamine] | 1400
13 | Nc1cc(NCCCO)c2c(F)cc(-c3cc[nH]n3)cc2n1 [Example 7, 3-((2-Amino-5-fluoro-7-(1H-pyrazol-3-yl)quinolin-4-yl)amino)propan-1-ol] | 230
14 | Nc1cc(N[C@H]2CC[C@H](O)C2)c2c(F)cc(-c3cc[nH]n3)cc2n1 [Example 8, (1S,3S)-3-((2-Amino-5-fluoro-7-(1H-pyrazol-3-yl)quinolin-4-yl)amino)cyclopentan-1-ol] | 230
15 | Nc1cc(NCc2cc[nH]n2)c2c(F)cc(-c3cc[nH]n3)cc2n1 [Example 9, N4-((1H-Pyrazol-3-yl)methyl)-5-fluoro-7-(1H-pyrazol-3-yl)quinoline-2,4-diamine] | 290
16 | Nc1cc(N[C@H]2CCOC2)c2c(F)cc(-c3cc[nH]n3)cc2n1 [Example 10, (S)-5-Fluoro-7-(1H-pyrazol-3-yl)-N4-(tetrahydrofuran-3-yl)quinoline-2,4-diamine] | 850
